The source of these data is publication PMC11934079, “Structural and Mechanistic Characterization of the Flavin-Dependent Monooxygenase and Oxidase Involved in Sorbicillinoid Biosynthesis” (ACS Chemical Biology, 2025).

By Kd is commonly meant the concentration at which binding is half-saturated. High values mean weaker binding, low ones tighter binding.

SMILES strings stand for the structures.

Assay [1] addresses T1, SorC (Penicillium rubens, UniProt B6HN76).
T1 construct: monomer
Description: X-ray crystal structure, […] Å. Type of assay: binding. The following applies: flavin out conformation; without sorbicillin.

Assay [2] deals with T2, SorD (Penicillium rubens, UniProt B6HNK6).
T2 construct: C-terminal His6 tag, endogenous signal peptide (residues 5-22 partly seen in structure), secreted from Aspergillus niger; N-glycosylated; ~50 kDa theoretical, 61 kDa measured; monomer; FAD covalent at His78
T2 sequence (B6HNK6 whole entry, the tested form may be a part): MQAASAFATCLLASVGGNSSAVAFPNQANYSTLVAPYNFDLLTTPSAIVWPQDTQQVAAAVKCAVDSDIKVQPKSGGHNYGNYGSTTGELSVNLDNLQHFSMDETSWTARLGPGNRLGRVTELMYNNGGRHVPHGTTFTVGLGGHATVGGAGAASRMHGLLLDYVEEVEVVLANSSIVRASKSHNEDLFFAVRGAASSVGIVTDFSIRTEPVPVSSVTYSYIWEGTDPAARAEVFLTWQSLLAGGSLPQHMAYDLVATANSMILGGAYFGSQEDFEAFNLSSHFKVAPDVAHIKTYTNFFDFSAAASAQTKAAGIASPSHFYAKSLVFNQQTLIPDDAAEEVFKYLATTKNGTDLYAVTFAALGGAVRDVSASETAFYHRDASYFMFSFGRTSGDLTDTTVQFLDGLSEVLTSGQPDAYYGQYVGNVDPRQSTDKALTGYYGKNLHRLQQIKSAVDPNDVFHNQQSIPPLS
Description: X-ray crystal structure, […] Å. Type of assay: binding. The settings on record: covalent; attached to His78; without sorbicillin.

For assay [3], the target named is T1, SorC. Kind of assay: enzyme kinetics. Type of assay: biochemical. The following applies: coenzyme; hydroxylation of sorbicillin.
Assay [4] concerns the target T3, SorC (Penicillium rubens, UniProt B6HN76, R201A).
T3 construct: monomer
Description: microscale thermophoresis. The assay is classed as binding.

For assay [5], the target named is T1, SorC. Kind of assay: microscale thermophoresis. The assay is classed as binding. For orientation: MST reads how a fluorescent partner responds to local heating, with and without ligand.
For assay [6], the target named is T2, SorD. Kind of assay: microscale thermophoresis. Type of assay: binding.

T1 sequence (B6HN76 whole entry): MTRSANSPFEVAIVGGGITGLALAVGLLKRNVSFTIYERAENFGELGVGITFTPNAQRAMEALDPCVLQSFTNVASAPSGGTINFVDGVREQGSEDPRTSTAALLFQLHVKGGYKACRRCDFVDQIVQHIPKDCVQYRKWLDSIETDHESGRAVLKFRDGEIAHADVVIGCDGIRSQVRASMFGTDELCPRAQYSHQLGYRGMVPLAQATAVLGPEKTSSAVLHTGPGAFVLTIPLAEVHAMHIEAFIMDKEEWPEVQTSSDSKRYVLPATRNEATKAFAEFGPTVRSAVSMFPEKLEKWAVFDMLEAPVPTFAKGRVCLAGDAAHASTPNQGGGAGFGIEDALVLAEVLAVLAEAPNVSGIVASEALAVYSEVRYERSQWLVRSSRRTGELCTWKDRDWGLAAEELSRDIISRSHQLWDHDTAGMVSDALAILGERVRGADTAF
T3 sequence (B6HN76 whole entry R201A): as the sequence (B6HN76 whole entry) above, with R201A counted along it

With `Cc1cc2nc3c(=O)[nH]c(=O)nc-3n(C[C@H](O)[C@H](O)[C@H](O)COP(=O)(O)OP(=O)(O)OC[C@H]3O[C@@H](n4cnc5c(N)ncnc54)[C@H](O)[C@@H]3O)c2cc1C` [FAD], in assay [1], the “X-ray crystal structure, 1.4 Å” value is “SorC without sorbicillin shows that the oxidized flavin is already in the out conformation”. The “X-ray crystal structure, 1.55 Å” value in assay [2] is recorded as “SorD, where the FAD is covalently attached to residue His78”.
Take `NC(=O)C1=CN([C@@H]2O[C@H](COP(=O)(O)OP(=O)(O)OC[C@H]3O[C@@H](n4cnc5c(N)ncnc54)[C@H](O)[C@@H]3O)[C@@H](O)[C@H]2O)C=CC1` [NADH]: in assay [3], the catalytic efficiency entry was “both NADH and NADPH were accepted as coenzymes, with NADH having a higher overall catalytic efficiency”.
As for `NC(=O)C1=CN([C@@H]2O[C@H](COP(=O)(O)OP(=O)(O)OC[C@H]3O[C@@H](n4cnc5c(N)ncnc54)[C@H](OP(=O)(O)O)[C@@H]3O)[C@@H](O)[C@H]2O)C=CC1` [NADPH], the catalytic efficiency entry in assay [3] was “both NADH and NADPH were accepted as coenzymes”.
Regarding `C/C=C/C=C/C(=O)c1cc(C)c(O)c(C)c1O` [compound 1, sorbicillin], the Kd in assay [4] is 12.6 ± 9.7 µM; in assay [5] it was 940 ± 93 nM; in assay [6], 1200 ± 1600 nM.
